Measurements published in article PMC5908295 (Oncotarget, 2018).

Key:
[1] = target: PIM1 (Homo sapiens, UniProt P11309); assay: KINOMEscan Kd (DiscoverX); type: binding
[2] = Metabolic stability, liver S9 fraction; type: in vitro ADME; conditions: Human, 37 °C, read-out: Liver S9 fraction t1/2 (converted)
[3] = target: FLT3 (K663Q) (Homo sapiens, UniProt P36888, K663Q); assay: KINOMEscan Kd, specific screen against FLT3 mutants; type: binding
Protocol: (§1) Dissociation constants (Kd) and inhibition levels of FLT3 mutants were measured at DiscoverX using the KINOMEscan^TM Profiling Service (KdELECT).

[4] = target: FLT3 (ITD, F691L) (Homo sapiens, UniProt P36888, F691L/ITD); assay: as above; type: binding
Protocol: as §1

[5] = target: FLT3 (ITD, D835V) (Homo sapiens, UniProt P36888, D835V/ITD); assay: as above; type: binding
Protocol: as §1

[6] = target: FLT3 (N841I) (Homo sapiens, UniProt P36888, N841I); assay: as above; type: binding
Protocol: as §1

[7] = target: FLT3 (D835V) (Homo sapiens, UniProt P36888, D835V); assay: as above; type: binding
Protocol: as §1

[8] = target: FLT3 (D835H) (Homo sapiens, UniProt P36888, D835H); assay: as above; type: binding
Protocol: as §1

[9] = target: FLT3 (R834Q) (Homo sapiens, UniProt P36888, R834Q); assay: as above; type: binding
Protocol: as §1

[10] = target: FLT3 (D835Y) (Homo sapiens, UniProt P36888, D835Y); assay: as above; type: binding
Protocol: as §1

[11] = target: T1, FLT3 (ITD) (Homo sapiens, UniProt P36888, ITD); assay: as above; type: binding
Protocol: as §1

[12] = tested on: MOLM-14; assay: MTS viability assay, 72 h; conditions: Homo sapiens, MOLM-14, 72 h
Protocol: (§3) 15-25 ×10^3 of MV-4-11, MOLM-13, MOLM-14, MOLM-16, KG-1, Eol-1, SKM-1, PL-21, GDM-1, SKNO-1, RS4;11, Kasumi-3 and Kasumi-6 cells were seeded in 150 μL of culture medium onto individual wells in a 96 well plates, in triplicates. On the same day, 50 μL of medium containing tested inhibitor was added to the wells. Each compound was tested at 8 concentrations, in triplicates. As a negative control, the medium containing 0.1% DMSO was used. […] Staurosporine was used at 10 μM as a positive control. One the day of drug addition, basal signal from untreated cells was measured from in triplicate to determine time zero (T0). […] GI50 and LC50 values were extrapolated from a variable (four-parameter) dose-response curve fitted in GraphPad Prism.

[13] = tested on: MV-4-11 tumors (FLT3-ITD+); assay: MV-4-11 subcutaneous xenograft, single agent; type: in vivo, SCID/beige mice; conditions: PO
From the text: (§2) All animals were handled in strict accordance with good animal practice as defined by the relevant national and local animal welfare bodies. SCID and SCID/beige C.B-17 mice were provided by Harlan Laboratories or Charles River Laboratories, and were maintained in pathogen free conditions. For the xenograft experiments, age-matched (9-11 weeks old) females were used. 5×10^6 of MV-4-11 or MOLM-16 cells were suspended in a mixture (1:1, v:v) of PBS with Matrigel (BD Biosciences,) and injected subcutaneously (sc), in a total volume of 100 μL, above the groin on the right hind limb. For MOLM-13 and KG-1 cells, a mixture (3:1, v:v) of PBS and Matrigel HC (BD Bioscience,) was used to inject 5 × 10^6 of cell per mouse subcutaneously (sc), in a total volume of 100 μL. When tumors reached 100-130 mm^3, mice were randomized into uniform groups (6-9 mice per group) and subsequently administered the compound. […] At the end of the experiment, mice were anesthetized with isofluran and blood samples for total cell counts and biochemistry were obtained by retro-orbital bleeding. […] 5×10^6 cells suspended in a mixture (3:1, v:v) of PBS and Matrigel were injected as described above. When the tumor volume reached ~120 mm^3, mice were randomized into uniform groups (5 mice per group) and the compound then administered. […] Tumor volume was monitored every second day and calculated using the formula: TV = (a^2×b)/2, where “a” is the short axis in millimeters, and “b” is the long axis in millimeters. Body weight was assessed every day.

[14] = tested on: OCI-AML-3; assay: MTS viability assay, 72 h; conditions: Homo sapiens, OCI-AML-3, 72 h
Protocol: as §3

[15] = Pharmacokinetics after oral and intravenous administration; type: in vivo, dogs (Beagle); conditions: male, Beagle, plasma, Dog, Dose PO/IV 5/1 mg/kg
Protocol: therapeutic potential in acute myeloid leukemia
sheet for further calculations.
Three male Beagle dogs were administered

[16] = target: FLT3 (ITD) (Homo sapiens, UniProt P36888); assay: KINOMEscan Kd (DiscoverX); type: binding; conditions: comparison of Kd
Protocol: as §1

[17] = target: T1, FLT3 (ITD); assay: KINOMEscan Kd (DiscoverX); type: binding
Protocol: as §1

[18] = tested on: MV-4-11; assay: MTS viability assay, 72 h; conditions: Homo sapiens, MV4-11, 72 h
Protocol: (§4) On the same day, 50 μL of medium containing tested inhibitor was added to the wells. Each compound was tested at 8 concentrations, in triplicates. As a negative control, the medium containing 0.1% DMSO was used. […] Staurosporine was used at 10 μM as a positive control. One the day of drug addition, basal signal from untreated cells was measured from in triplicate to determine time zero (T0). […] GI50 and LC50 values were extrapolated from a variable (four-parameter) dose-response curve fitted in GraphPad Prism.

[19] = Metabolic stability, liver microsomes; type: in vitro ADME; conditions: Dog, 37 °C, read-out: Liver microsomes t1/2 (converted)
[20] = tested on: OCI-AML-2; assay: MTS viability assay, 72 h; conditions: Homo sapiens, OCI-AML2, 72 h
Protocol: as §4

[21] = tested on: EOL-1; assay: MTS viability assay, 72 h; conditions: Homo sapiens, EOL1, 72 h
Protocol: as §3

[22] = tested on: KASUMI-6; assay: MTS viability assay, 72 h; conditions: 72 h
Protocol: as §3

[23] = tested on: MV-4-11; assay: Drug interactions (combination index), MTS; type: cell-based; conditions: MV-4-11, broad range of concentrations
Protocol: and AC220 in AML cell lines was assessed using an MTS assay. Cells viability was measured after 72 h incubation with three-fold serial dilutions of compounds, starting at 10 µM concentration. Obtained data were presented as percentage of viable cells compared with control (untreated) cells viability. Error bars indicate SD.
11 cells. Combination index (CI) are shown on the Y axis and compound concentrations are shown on X and Z axes. Values […] and below 0.7- a synergy between tested compounds. Values above 1 indicate an antagonistic effect.
(1 picture or pasted object on this page, not shown here)

[24] = tested on: MOLM-16 (FLT3-WT) tumor; assay: MOLM-16 subcutaneous xenograft, single agent; type: in vivo, SCID/beige mice
From the text: as §2

Sequence of PIM1 (P11309 whole entry): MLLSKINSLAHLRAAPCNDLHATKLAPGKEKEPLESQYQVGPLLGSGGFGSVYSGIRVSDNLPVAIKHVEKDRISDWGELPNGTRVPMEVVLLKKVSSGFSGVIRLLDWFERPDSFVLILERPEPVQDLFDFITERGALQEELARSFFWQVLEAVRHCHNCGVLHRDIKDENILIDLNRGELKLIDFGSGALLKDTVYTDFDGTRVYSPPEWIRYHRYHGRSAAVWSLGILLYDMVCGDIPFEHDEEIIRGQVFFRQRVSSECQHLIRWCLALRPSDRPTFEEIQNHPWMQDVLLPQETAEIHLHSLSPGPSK

## CC(C)n1c(C2CCNCC2)nc2c([N+](=O)[O-])c(Br)c(Br)cc21 [SEL24-B489, 5,6-dibromo-4-nitro-2-(piperidin-4-yl)-1-(propan-2-yl)-1H-1,3-benzodiazole]
[1]
  Kd: 0.002 µM
[2]
  half-life at 1 µM: 9.9 h
[3]
  Kd: 0.53 µM
[4]
  Kd: 0.01 µM
[5]
  Kd: 0.0028 µM
[6]
  Kd: 0.15 µM
[7]
  Kd: 0.011 µM
[8]
  Kd: 0.037 µM
[9]
  Kd: 3.2 µM
[10]
  Kd: 0.016 µM
[11]
  Kd: 0.012 µM
[12]
  GI50: 0.097 µM
[12]; read-out: LC50
  CC50: > 10 µM
[13]; MV-4-11, 50 mg/kg daily
  tumor growth inhibition (TGI): 67%
[13]; MV-4-11, 75 mg/kg daily
  tumor growth inhibition (TGI): 74%
[13]; MV-4-11, 100 mg/kg daily
  tumor growth inhibition (TGI): 82%
[14]
  GI50: 1.59 µM
[14]; read-out: LC50
  CC50: 9.21 µM
[15]; 5 mg/kg
  Cmax: 0.155 µg/mL
  Tmax: 1.75 h
[15]; 5 mg/kg, read-out: F (bioavailability)
  bioavailability: 47%
[15]
  AUC(0-t): 3.08 µg·h/mL
  half-life: 17.6 h
[16]
  stronger inhibitor binding to FLT3-ITD than to FLT3-WT: 10 fold
[17]
  Kd: 0.016 µM
[18]
  GI50: 0.02 µM
[18]; read-out: LC50
  CC50: > 10 µM
[19]
  half-life at 1 µM: 7.6 h
[20]
  GI50: 0.96 µM
[20]; read-out: LC50
  CC50: 2.32 µM
[21]
  GI50: 0.266 µM
[22]
  GI50: 0.017 µM
[23]
  pharmacological interaction with AraC: marked synergy
  pharmacological interaction with vosaroxin: marked synergy
[24]; MOLM-16, 25 mg/kg BID
  TGI: ~ 100%
[24]; MOLM-16, 50 mg/kg EOD
  TGI: 79%
[24]; MOLM-16, 50 mg/kg QD
  TGI: ~ 100%
